Reference: patent US6011000A, “Compositions for the treatment of blood disorders” (priority 1995, dated 2000)
Where two headings read alike, the source gives them in different places.

How the values were obtained:
[1] = tested on: erythroid cells (peripheral blood); experiment: Erythroid cell viability by fluorescent staining (Calcein-AM), FIG. 2; assay type: cell-based, human; conditions: vs untreated controls
Procedure: FIG. 2 Peripheral blood cell viability after incubation with arginine butyrate, dihydrocinnamic acid, phenoxyacetic acid and butyric acid ethyl ester.
Compositions were tested for the ability to directly stimulate erythroid cell growth. Cell growth stimulation is a useful property for an agent to be used to treat anemias and distinguishes such agents from the cytotoxic drugs currently being tested for treatment of hemoglobinopathies. Cell viability analyses were performed using fluorescent staining to detect living cells. Cells were in log phase of growth in 6-well dishes when used in proliferation assays. For enumeration of living cells, wells were washed once with medium to remove nonadherent or dead cells. Remaining live cells were labeled with 2 μM 2',7'-bis-(carboxyethyl)-5-(and 6)-carboxy-fluorescein acetoxy-methyl ester (Calcein-AM) (Molecular Probes; Eugene, Oreg.) for 20 minutes at 37° C. and washed once. Fluorescence intensity of live cells was read on a CytoFluor 2300 Fluorescence Plate Scanner (Millipore; Bedford, Mass.) at excitation and emission wavelengths of 485 and 530 nm, respectively. The fluorescence intensity of a well was proportional to the number of living cells in the well. Background fluorescence was measured separately for each plate and subtracted from all readings. Each experiment was performed in triplicate or quadruplicate. The standard deviation (SD) of repetitive readings was less than 30% of the mean. Results are depicted in FIG. 2.

[2] = tested on: system A transport (K562 cells and nucleated erythroblasts from fetal liver); experiment: Effects on system A amino acid transport (3H-MAIB uptake); assay type: cell-based, human
Procedure: Inhibition of nutrient uptake is undesirable for treatment of anemias. Methyl aminoisobutyric acid (MAIB) labeled with tritium (^3 H) is normally taken up by system A amino acid transport. Cold (unlabeled) compounds were added to cultures containing ^3 H-MAIB and incubated for 1 hour. Cells were harvested and the amount of ^3 H taken up by cells was quantitated by scintillation counting.

K562 cells = experiment: Dose response of cell growth, trypan blue exclusion (FIG. 3); assay type: cell-based, human; conditions: day 4
Procedure: FIG. 3 Cell viability as determined by the comparative numbers of total and viable K562 cells in the presence of increasing concentrations of (A) phenoxyacetic acid, (B) dihydrocinnamic acid, (C) butyric acid ethyl ester, (D) arginine butyrate, and (E) isobutyramide.
Dose response curves at dosages of up to 2.0 mM were also determined for phenoxyacetic acid (PAA; FIG. 3A), dihydrocinnamic acid (DHC; FIG. 3B), butyric acid ethyl ester (BAEE; FIG. 3C), arginine butyrate (AB; FIG. 3D) and isobutyramide (IBT; FIG. 3E). Cells were counted on day 4 of treatment and viable cells identified by trypan blue exclusion.

[3] = tested on: fetal globin mRNA (human erythroleukemia cells); experiment: Fetal globin mRNA in erythroleukemia cells (primer extension); assay type: cell-based; conditions: for Gamma/Alpha: untreated 0.46; for activation at 1000 µM: Homo sapiens, 96 h, read-out: Gamma Globin mRNA (increase)
Procedure: Compounds were tested for increased expression of the human globin genes in human erythroid cells. In addition, as the cell line being tested is a tumor cell line, the assay determines if differentiation, a growth inhibitory effect on cancer cells, is induced by the compounds tested. Human erythroleukemia cells were cultured in RPMI media with 10% fetal calf serum alone or with treatment with various compounds for 4 days. Globin MRNA was quantitated by primer extension analysis. Fetal globin mRNA was compared to the amount of fetal globin mRNA produced in untreated cells during the same culture period. The quantitation was expressed as a percent of alpha globin MRNA which was constant. Results are expressed proportional to α-globin mRNA (Table 3).

human erythroid cells = experiment: DNA fragmentation by flow cytometry (degradation of DNA); assay type: cell-based; conditions: for Degraded DNA: 4 days, control 26%, 22%; for proportion of degraded DNA: 1.0 mM to 2.0 mM, untreated 26%; for DNA fragmentation / cell viability / DNA integrity: DNA fragmentation assays
Procedure: Such activities might limit their utility for treatment of anemias such as occur in thalassemia, but alternatively would be useful for anticancer effects. To determine cell viability, human erythroid cells were cultured in the presence and absence of these compounds for 4 days and the amount of DNA fragmentation which occurred was measured.
Flow cytometric determination of DNA profiles and DNA fragmentation were determined. Cytometric analysis was performed with a FACScan (Becton Dickenson Instruments; Columbia, Md.). The data analysis and display were performed using the Cell-Fit software program. Approximately 0.5×10^6 cells were washed twice with PBS and resuspended in 1 ml of 1% sodium citrate, 0.1% Triton X-100 and 50 μg of propidium iodide/ml. Resulting permeabilized cells were kept in the dark at 4° C. overnight before DNA profile or DNA fragmentation analysis (Table 4).

K562 = experiment: Growth of human erythroid cell line K562; assay type: cell-based; conditions: for growth of K562: over 3 days
Procedure: Such activities might limit their utility for treatment of anemias such as occur in thalassemia, but alternatively would be useful for anticancer effects. […]
Cell viability analyses were performed using fluorescent staining to detect living cells. Cells were in log phase of growth in 6-well dishes when used in proliferation assays. For enumeration of living cells, wells were washed once with medium to remove nonadherent or dead cells. Remaining live cells were labeled with Calcein-AM for 20 minutes at 37° C. and washed once. Fluorescence intensity of adherent live cells was read on a CytoFluor 2300 Fluorescence Plate Scanner (Millipore; Bedford, Mass.) at excitation and emission wavelengths of 485 and 530 nm, respectively. The fluorescence intensity of a well was proportional to the number of living cells in the well. Background fluorescence was measured separately for each plate and subtracted from all readings. Each experiment was performed in triplicate or quadruplicate. The standard deviation (SD) of repetitive readings was less than 30% of the mean.
At higher concentrations, still easily achievable in vivo, arginine butyrate (0.5 mM) and dihydrocinnamic acid (greater than 0.5 mM) inhibited growth of this tumor cell line by approximately 50%. Therefore, these compounds are also useful as anti-tumor agents.

Row | SMILES | erythroid cell growth and proliferation ([1]; 0.2 mM) | erythroid cell growth and proliferation ([1]; 0.5 mM) | system A (neutral) amino acid transport [2] | cell growth (K562 cells; concentrations above 0.2 mM) | induction of fetal globin mRNA [3] | Gamma/Alpha ([3]; 1.0 mM, 4 days) | activation at 1000 µM ([3]; 1.0 mM, 4 days) | Degraded DNA (human erythroid cells; 0.5 mM) | proportion of degraded DNA (human erythroid cells) | Degraded DNA (human erythroid cells; 1.0 mM) | Degraded DNA (human erythroid cells; 2.0 mM) | DNA fragmentation / cell viability / DNA integrity (human erythroid cells) | growth of K562 (K562; 0.2 mM) | inhibition at 500 µM (K562; Homo sapiens, K562, 0.5 mM) | system A (neutral) amino acid transport ([2]; 1 hour, 3H-MAIB (FIG. 12), listed as phenoxy acetic acid) | system A (neutral) amino acid transport ([2]; 1 hour, 3H-MAIB (FIG. 12), listed as phenoxyacetic acid) | proliferation (K562 cells; up to 2.0 mM) | activation at 1000 µM [3] | growth of K562 (K562; 0.5 mM)
1 | CCCC(=O)O [AB, arginine butyrate] | inhibited proliferation | inhibited proliferation | inhibited the neutral amino acid transport mechanism | suppressed cell growth | significantly increased the induction of fetal globin MRNA | 0.66 | 20% | 32% | 44% | 34% | 44% | decrease cell viability | either did not inhibit, or slightly enhanced growth | ~50% |  |  |  |  | 
2 | O=C(O)COc1ccccc1 [PAA, Phenoxyacetic acid] |  | either had no effect or stimulated erythroid cell growth and proliferation |  |  | significantly increased the induction of fetal globin MRNA | 0.70 |  |  | 20.6% |  | 20.6% | reduce DNA fragmentation |  |  | caused no significant inhibition and actually increased uptake of nutrients into cells | do not significantly alter system A transport of amino acids | did not significantly inhibit proliferation | 24% | either did not inhibit, or slightly enhanced growth
